Assay results taken from US5567692A, “9-[(substituted glycyl) amido)]-6-demethyl-6-deoxytetracyclines” (priority 1995, dated 1996).
Where a name gives a salt, the structure may show the parent alone. Read-outs that look alike come from different tables or passages of the source.

Experiments:
S. aureus IVES 1983 = assay: MIC, agar dilution; format: cell-based; conditions: Staphylococcus aureus, IVES1983, 18 h
S. aureus IVES 2943 = assay: MIC, agar dilution; format: cell-based; conditions: Staphylococcus aureus, IVES2943, 18 h
E. coli J2175 = assay: MIC, agar dilution; format: cell-based; conditions: Escherichia coli, 18 h, read-out: MIC
E. coli #311 (MP) = assay: MIC, agar dilution; format: cell-based
E. coli UBMS 89-1 Tet M = assay: microbe, parasite or virus in culture; format: cell-based; conditions: Escherichia coli, UBMS891TETM, 18 h
E. coli J3272 Tet C = assay: microbe, parasite or virus in culture; format: cell-based
E. coli UBMS 88-1 Tet B = assay: microbe, parasite or virus in culture; format: cell-based; conditions: Escherichia coli, UBMS881TETB, 18 h
S. aureus ROSE (MP) = assay: MIC, agar dilution; format: cell-based; conditions: Staphylococcus aureus, 18 h
[1] = tested on: Ps. aeruginosa ATCC 27853; assay: MIC, agar dilution; format: cell-based
S. aureus NEMC 8769 = assay: MIC, agar dilution; format: cell-based; conditions: Staphylococcus aureus, NEMC8769, 18 h
E. coli UBMS 90-5 = assay: microbe, parasite or virus in culture; format: cell-based; conditions: E. coli UBMS 90-5
[2] = tested on: Staphylococcus aureus strain Smith (tetracycline sensitive); assay: Acute lethal infection in mice, S. aureus Smith; format: in vivo; conditions: for ED50: Staphylococcus aureus, 168 h, mice, S. aureus Smith (Sens), 7 day survival, read-out: ED50; for in vivo activity (in words): tested intravenously against the minocycline sensitive organism S. aureus Smith
[3] = tested on: E. coli UBMS 89-2 Tet sens.; assay: MIC, agar dilution; format: cell-based; conditions: Escherichia coli, 18 h
E. coli PRP1 Tet A = assay: microbe, parasite or virus in culture; format: cell-based
S. marcescens FPOR 8733 = assay: MIC, agar dilution; format: cell-based; conditions: Serratia marcescens, FPOR8733, 18 h, read-out: MIC
[4] = tested on: E. coli MC 4100 TNIOC Tet B; assay: microbe, parasite or virus in culture; format: cell-based; conditions: Escherichia coli, 18 h
[5] = tested on: S. aureus UBMS 90-1 Tet M; assay: microbe, parasite or virus in culture; format: cell-based; conditions: Staphylococcus aureus, UBMS901TETM, 18 h
S. aureus UBMS 90-3 = assay: MIC, agar dilution; format: cell-based; conditions: Staphylococcus aureus, UBMS903, 18 h
[6] = tested on: X. maltophilia NEMC 87210; assay: MIC, agar dilution; format: cell-based; conditions: Stenotrophomonas maltophilia, NEMC87210, 18 h
[7] = tested on: S. aureus UBMS 88-7 Tet K; assay: microbe, parasite or virus in culture; format: cell-based; conditions: Staphylococcus aureus, UBMS887TETK, 18 h
E. coli ATCC 25922 = assay: MIC, agar dilution; format: cell-based; conditions: Escherichia coli, ATCC25922, 18 h
[8] = tested on: S. hemolyticus AVHAH 88-3; assay: MIC, agar dilution; format: cell-based; conditions: Streptococcus pyogenes, AVHAH883, 18 h
E. coli UBMS 90-4 Tet M = assay: microbe, parasite or virus in culture; format: cell-based; conditions: Escherichia coli, UBMS904TETM, 18 h
E. coli J3272 Tet sens = assay: MIC, agar dilution; format: cell-based; conditions: Escherichia coli, J3272TETSENS, 18 h
S. aureus ATCC 29213 = assay: MIC, agar dilution; format: cell-based; conditions: Staphylococcus aureus, ATCC29213, 18 h, S. aureus ATCC 29213
S. aureus UBMS 88-4 = assay: MIC, agar dilution; format: cell-based; conditions: Staphylococcus aureus, UBMS884, 18 h
E. faecalis ATCC 29212 = assay: MIC, agar dilution; format: cell-based; conditions: Enterococcus faecalis, ATCC29212, 18 h
Enterococcus 12201 = assay: MIC, agar dilution; format: cell-based; conditions: Enterococcus, 12201, 18 h
E. coli BAJ9003 IMP MUT = assay: microbe, parasite or virus in culture; format: cell-based; conditions: Escherichia coli, BAJ9003IMPMUT, 18 h
[9] = tested on: E. coli MC 4100 Tet sens.; assay: MIC, agar dilution; format: cell-based; conditions: Escherichia coli, 18 h
E. coli J3272 Tet D = assay: microbe, parasite or virus in culture; format: cell-based; conditions: Escherichia coli, J3272TETD, 18 h
S. aureus SMITH (MP) = assay: MIC, agar dilution; format: cell-based; conditions: Staphylococcus aureus, 18 h
[10] = tested on: S. aureus UBMS 90-2 Tet M; assay: microbe, parasite or virus in culture; format: cell-based; conditions: Staphylococcus aureus, UBMS902TETM, 18 h
[11] = tested on: S. aureus UBMS 88-5 Tet M; assay: microbe, parasite or virus in culture; format: cell-based; conditions: Staphylococcus aureus, UBMS885TETM, 18 h
[12] = Escherichia coli, J3272TETC, 18 h
[13] = Escherichia coli, UBMS905, 18 h, read-out: MIC
[14] = Escherichia coli, PRP1TETA, 18 h

SMILES	MIC (S. aureus IVES 1983) [µg/mL]	MIC (E. coli J2175) [µg/mL]	MIC (E. coli UBMS 89-1 Tet M) [µg/mL]	MIC (E. coli UBMS 88-1 Tet B) [µg/mL]	MIC (S. aureus ROSE (MP)) [µg/mL]	MIC (S. aureus NEMC 8769) [µg/mL]	ED50 ([2]; iv, Intraveneous) [mg/kg]	ED50 ([2]; po, Oral) [mg/kg]	in vivo activity (in words) [2]	MIC [3] [µg/mL]	MIC (S. marcescens FPOR 8733) [µg/mL]	MIC [4] [µg/mL]	MIC [5] [µg/mL]	MIC [7] [µg/mL]	MIC (E. coli ATCC 25922) [µg/mL]	MIC (E. coli UBMS 90-4 Tet M) [µg/mL]	MIC (S. aureus ATCC 29213) [µg/mL]	MIC (S. aureus IVES 2943) [µg/mL]	MIC (E. coli #311 (MP); Escherichia coli, 18 h) [µg/mL]	MIC (S. aureus UBMS 88-4) [µg/mL]	also measured
CN(C)CC(=O)Nc1ccc2c(c1O)C(=O)C1=C(O)[C@]3(O)C(=O)C(C(N)=O)=C(O)[C@@H](N(C)C)C3CC1C2 (stereo partly drawn) [AA, [4S-(4alpha,12aalpha)]-4-(Dimethylamino)-9-[[(dimethylamino)acetyl]amino]-1,4,4a,5,5a,6,11,12a-octahydro-3,10,12,12a-tetrahydroxy-1,11-dioxo-2-naphthacenecarboxamide disulfate]	2	0.25	0.25	0.25	4	0.03	0.5 to 1	> 16	very good in vivo activity	0.25	4	0.25	0.25	1	0.25	0.25	< 0.015				MIC (S. aureus IVES 2943; S. aureus IVES 2943, read-out: MIC): 1 µg/mL; MIC (E. coli #311 (MP); E. coli #311 (MP)): 0.50 µg/mL; MIC (E. coli J3272 Tet C): 1 µg/mL; MIC ([1]; Ps. aeruginosa ATCC 27853): 16 µg/mL; MIC (E. coli UBMS 90-5): 0.25 µg/mL; MIC (E. coli PRP1 Tet A): 2 µg/mL; MIC (S. aureus UBMS 90-3; S. aureus UBMS 90-3): 0.06 µg/mL; MIC ([6]; X. maltophilia NEMC 87210, read-out: MIC): 2 µg/mL; MIC ([8]; S. hemolyticus AVHAH 88-3, read-out: MIC): 0.5 µg/mL; MIC (E. coli J3272 Tet sens): 0.25 µg/mL
CCCCCCNCC(=O)Nc1ccc2c(c1O)C(=O)C1=C(O)[C@]3(O)C(=O)C(C(N)=O)=C(O)[C@@H](N(C)C)C3CC1C2 (stereo partly drawn) [G, [4S-(4alpha,12aalpha)]-4-(Dimethylamino)-9-[[(hexylamino)acetyl]amino]-1,4,4a,5,5a,6,11,12a-octahydro-3,10,12,12a-tetrahydroxy-1,11-dioxo-2-naphthacenecarboxamide dihydrochloride]	1	1	0.25	1			> 4	> 16	very good in vivo activity	1	8	1	1	1	1	0.5	0.5	2	1	0.25	MIC (E. faecalis ATCC 29212; E. faecalis ATCC 29212, read-out: MIC): 0.12 µg/mL; MIC (Enterococcus 12201): 0.25 µg/mL; MIC (E. coli J3272 Tet C; [12]): 1 µg/mL; MIC (S. aureus ROSE (MP); read-out: MIC): 4 µg/mL; MIC ([1]; Pseudomonas aeruginosa, ATCC27853, 18 h, Ps. aeruginosa ATCC 27853, read-out: MIC): 32 µg/mL; MIC (S. aureus NEMC 8769; read-out: MIC): 0.12 µg/mL; MIC (E. coli UBMS 90-5; [13]): 1 µg/mL; MIC (E. coli BAJ9003 IMP MUT): 0.12 µg/mL; MIC [9]: 0.12 µg/mL; MIC (E. coli J3272 Tet D): 0.5 µg/mL; MIC (E. coli PRP1 Tet A; [14]): 1 µg/mL; MIC (S. aureus UBMS 90-3): 0.25 µg/mL; MIC [6]: 1 µg/mL; MIC (S. aureus SMITH (MP)): 0.25 µg/mL; MIC [10]: 0.25 µg/mL; MIC [8]: 2 µg/mL; MIC [11]: 0.5 µg/mL
CN(C)[C@@H]1C(O)=C(C(N)=O)C(=O)[C@@]2(O)C(O)=C3C(=O)c4c(ccc(NC(=O)CNCC5CC5)c4O)CC3CC12 (stereo partly drawn) [Q, [4S-(4alpha,12aalpha)]-9-[[[(Cyclopropylmethyl)amino]acetyl]amino]-4-(dimethylamino)-1,4,4a,5,5a,6,11,12a-octahydro-3,10,12,12a-tetrahydroxy-1,11-dioxo-2-naphthacenecarboxamide dihydrochloride]	4	1	0.5	0.5	16	0.5		> 16	very good in vivo activity	1	8	1	0.5	8	0.5	0.25	0.5	8	1	0.5	MIC (E. faecalis ATCC 29212): 0.25 µg/mL; MIC (Enterococcus 12201): 0.5 µg/mL; MIC (E. coli J3272 Tet C; [12]): 0.5 µg/mL; MIC ([1]; Pseudomonas aeruginosa, ATCC27853, 18 h): 16 µg/mL; MIC (E. coli UBMS 90-5; [13]): 0.5 µg/mL; MIC (E. coli BAJ9003 IMP MUT): 0.25 µg/mL; MIC [9]: 0.25 µg/mL; MIC (E. coli J3272 Tet D): 0.25 µg/mL; MIC (E. coli PRP1 Tet A; [14]): 2 µg/mL; MIC (S. aureus UBMS 90-3): 0.5 µg/mL; MIC [6]: 4 µg/mL; MIC (S. aureus SMITH (MP)): 0.5 µg/mL; MIC [10]: 0.5 µg/mL; MIC [8]: 4 µg/mL; MIC [11]: 0.5 µg/mL
